Measurements: US5128362A, “1-aminomethyl-1,2,3,4-tetrahydronaphthalenes” (Abbott Laboratories, priority 1990, dated 1992)
Counter-ions that a name gives are not always drawn. Like-named read-outs stand apart in the source and are kept apart here.

Key:
alpha 2 receptor [1] = test: Radioligand binding, [3H]rauwolscine, rat cerebral cortices; conditions: Ki alpha 1/Ki alpha-2
Description: (§1) The compounds were assessed for alpha-adrenergic receptor subtype selectivity by use of radioligand binding techniques as described previously (DeBernardis et. al. J. Med. Chem. 28, 1398 (1985)).

alpha 2 receptor [2] = target: T1, alpha 2 receptor (Rattus norvegicus, UniProt P22909); test: as above; conditions: read-out: Ki alpha-2
T1 construct: rat cerebral cortices; from tissue; host or cells: rat cerebral cortices
T1 sequence (P22909 1-465): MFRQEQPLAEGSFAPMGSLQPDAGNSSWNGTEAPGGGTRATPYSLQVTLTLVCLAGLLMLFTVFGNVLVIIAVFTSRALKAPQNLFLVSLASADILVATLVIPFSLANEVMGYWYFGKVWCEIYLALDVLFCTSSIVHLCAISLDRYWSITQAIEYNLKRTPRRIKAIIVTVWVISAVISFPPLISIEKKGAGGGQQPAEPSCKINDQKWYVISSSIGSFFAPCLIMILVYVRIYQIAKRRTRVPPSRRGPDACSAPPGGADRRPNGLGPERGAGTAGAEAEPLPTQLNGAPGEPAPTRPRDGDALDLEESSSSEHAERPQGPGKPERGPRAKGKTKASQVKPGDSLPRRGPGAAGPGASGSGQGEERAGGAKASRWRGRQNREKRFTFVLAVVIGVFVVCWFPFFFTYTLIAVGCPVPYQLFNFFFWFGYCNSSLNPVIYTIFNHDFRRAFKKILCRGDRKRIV
Description: as §1

alpha 1 receptor = target: T2, alpha 1 receptor (Rattus norvegicus, UniProt P15823); test: Radioligand binding, [3H]-prazosin, rat liver homogenates
T2 construct: rat liver homogenates; from tissue; host or cells: rat liver homogenates
T2 sequence (P15823 1-515): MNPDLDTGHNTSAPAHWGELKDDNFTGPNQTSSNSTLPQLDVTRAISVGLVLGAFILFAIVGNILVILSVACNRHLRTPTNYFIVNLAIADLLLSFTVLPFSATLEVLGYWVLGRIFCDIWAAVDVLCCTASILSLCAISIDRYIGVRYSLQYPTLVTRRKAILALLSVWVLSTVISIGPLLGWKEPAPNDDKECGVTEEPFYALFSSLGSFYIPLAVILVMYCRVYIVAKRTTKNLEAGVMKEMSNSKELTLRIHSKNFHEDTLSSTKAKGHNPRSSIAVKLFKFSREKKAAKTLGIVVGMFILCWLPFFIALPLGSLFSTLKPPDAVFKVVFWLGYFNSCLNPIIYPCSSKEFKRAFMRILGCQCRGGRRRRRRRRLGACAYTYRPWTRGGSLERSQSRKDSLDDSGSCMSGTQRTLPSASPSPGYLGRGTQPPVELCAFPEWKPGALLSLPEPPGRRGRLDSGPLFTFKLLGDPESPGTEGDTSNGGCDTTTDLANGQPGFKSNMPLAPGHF
Description: as §1

serotonin uptake = test: Uptake inhibition, tritiated serotonin, rat brain synaptosomes; assay type: biochemical, Sprague-Dawley derived rats; conditions: 0.1 μM tritiated amine, 37° C., 4 minutes, read-out: Biogenic Amine Uptake Inhibition IC50 Serotonin
Source text: (§2) Sprague-Dawley derived rats of either sex, weighing about 180-250 g, were killed by decapitation. The brains were immediately removed, placed on a glass plate chilled over crushed ice and dissected according to a modification of the method of Glowinski and Iversen (J. Neurochem. 13, 655-669, 1966). First, the rhombencephalon was separated by transverse section and discarded. The remaining tissue was bisected by a midline sagittal cut. The hypothalamus was removed using the anterior and posterior reference points, respectively. The hippocampus was peeled away and discarded and the striata were exposed and removed. Frontal cortical tissue was dissected from remaining brain structures. […]
(§3) Uptake studies were conducted according to the method of Synder and Coyle (J. Pharmacol. Exp. Ther. 165, 78-86, 1969) with minor modifications. Usually a 0.1 ml aliquot of the synaptosomal preparation was incubated in a mixture of 0.75 ml of modified Krebs-Ringer buffer, 0.05 ml of the drug being evaluated for uptake inhibition, and 0.1 ml of a 1 μM tritiated amine (norepinephrine, serotonin or dopamine) solution (final concentration 0.1 μM) for a total volume of 1 ml. […] All samples were cold and dark adapted and counted in a Tri-Carb® (Packard) Model 460 Liquid Scintillation Spectrometer. Corrections were automatically made for quenching by the external standard method and for luminescence. […]

norepinephrine uptake = test: Uptake inhibition, tritiated norepinephrine, rat brain synaptosomes; assay type: biochemical, Sprague-Dawley derived rats; conditions: 0.1 μM tritiated amine, 37° C., 4 minutes, read-out: Biogenic Amine Uptake Inhibition IC50 Norephinephrine
Source text: as §2, §3

dopamine uptake = test: Uptake inhibition, tritiated dopamine, rat brain synaptosomes; assay type: biochemical, Sprague-Dawley derived rats; conditions: 0.1 μM tritiated amine, 37° C., 4 minutes, read-out: Biogenic Amine Uptake Inhibition IC50 Dopamine
Source text: as §2, §3

[3] = rat cerebral cortices, [3H]rauwolscine

Compound | alpha-2 - Selectivity Ki alpha 1/Ki alpha-2 (alpha 2 receptor [1]) | Ki (alpha 2 receptor [2]) | also measured
COc1ccc2c(c1)CCCC2CN1CCC(c2ccccc2)C1 (stereo not shown) [Example 121, 6-Methoxy-1-(3-phenylpyrrolidino-1-methyl) tetralin hydrochloride] | 95 | 1 nM | 
CN(CCc1cccs1)CC1CCCc2c(Cl)cccc21 (stereo not shown) [Example 129, 1-((N-Methylamino)methyl-N-(2-(2-thieny)ethyl))-5-chloro tetralin hydrochloride] | 55 | 3.6 nM | 
c1ccc(C2CCN(CC3CCCc4c3ccc3c4OCO3)C2)cc1 (stereo not shown) [Example 143a, 5,6-Methylenedioxy-1-(3-phenylpyrrolidino-1-methyl) tetralin methanesulfonate] | 43 | 1.2 nM | 
COc1cccc2c1CCCC2CN1CCC(c2cccs2)C1 (stereo not shown) [Example 146, 5-Methoxy-1-(3-(2-thienyl)pyrrolidino-1-methyl) tetralin hydrochloride] | 35 | 4.9 nM | 
Fc1ccc2c(c1)CCCC2CN1CCC(c2ccccc2)C1 (stereo not shown) [Example 148, 6-Fluoro-1-(3-phenylpyrrolidino-1-methyl) tetralin methanesulfonate] | 19 | 6.5 nM | 
Fc1ccc2c(c1)CCCC2CN1CCC(c2cccs2)C1 (stereo not shown) [Example 149, 6-Fluoro-1-(3-(2-thienyl)pyrrolidino-1-methyl) tetralin methanesulfonate] | 45 |  | Ki (alpha 2 receptor [2]; [3]): 4.9 nM
COc1ccc2c(c1)CCC2CN1CCC(c2cccs2)C1 (stereo not shown) [Example 151, 5-Methoxy-1-(3-(2-thienyl)pyrrolidino-1-methyl) indane hydrochloride] | 71 | 2.5 nM | 
COc1ccc2c(c1)CCC2CN1CCC(c2ccccc2)C1 (stereo not shown) [Example 152, 5-Methoxy-1-(3-phenylpyrrolidino-1-methyl) indane hydrochloride] | 11 |  | Ki (alpha 1 receptor): 51 nM; Ki (alpha 2 receptor [2]; [3]): 4.8 nM
COc1ccc2c(c1)CCC2CN1CCC(c2cccc(F)c2)C1 (stereo not shown) [Example 153, 5-Methoxy-1-(3-(m-fluorophenyl)pyrrolidino-1-methyl) indane hydrochloride] | 7 | 8.6 nM | 
Nc1ccc2c(c1)CCCC2CN1CCC(c2ccccc2)C1 (stereo not shown) [Example 156, 6-Amino-1-(3-phenylpyrrolidino-1-methyl) tetralin dihydrochloride] | 21 | 6 nM | 
Fc1cc2c(c3c1C(CN1CCC(c4ccccc4)C1)CCC3)OCO2 (stereo not shown) [Example 160, 8-Fluoro-5,6-methylenedioxy-1-(3-phenylpyrrolidino-1-methyl) tetralin hydrochloride] |  |  | IC50 (serotonin uptake): 1840 nM; IC50 (norepinephrine uptake): 991 nM; IC50 (dopamine uptake): 2930 nM
CN(CCc1cccc(F)c1)CC1CCCc2c1ccc1c2OCCO1 (stereo not shown) [Example 167, 1-((N-Methylamino)methyl-N-(2-m-fluorophenethyl))-5,6-ethylenedioxy tetralin methanesulfonate] | 85 | 4.2 nM | 
CN(c1ccc2c(c1)CCCC2CN1CCC(c2ccccc2)C1)S(C)(=O)=O (stereo not shown) [Example 193, 6-(N-methylmethylsulfonamido)-1-(3-phenylpyrrolidino-1-methyl)tetralin hydrochloride] | 93 | 1.3 nM | 
